Data from patent publication US8586555B2, “Immunomodulatory compositions, formulations, and methods for use thereof” (Dynavax Technologies Corporation, priority 2001, dated 2013).

Columns and labels:
Type in all cases: cell-based
[1] = system: human peripheral blood mononuclear cells (hPBMC); experiment: human PBMC assay, Example 6
Description: (§1) Hexameric oligonucleotides were tested for immunomodulatory activity alone and complexed with lactic acid/glycolic acid copolymer microcarrier beads using a human peripheral blood mononuclear cells (hPBMC) assay. Peripheral blood was collected from healthy volunteers by venipuncture using heparinized syringes. Blood was layered onto a FICOLL® (Amersham Pharmacia Biotech) cushion and centrifuged. hPBMCs, located at the FICOLL® interface, were collected, then washed twice with cold phosphate buffered saline (PBS). The cells were resuspended and cultured in 48 well plates at 2×10^6 cells/mL at 37° C. in RPMI 1640 with 10% heat-inactivated human AB serum plus 50 units/mL penicillin, 50 μg/mL streptomycin, 300 μg/mL glutamine, 1 mM sodium pyruvate, and 1×MEM non-essential amino acids (NEAA).
(§2) Oligonucleotides were tested as single agents, or in combination with PLGA microspheres (unmodified or cationic). All oligonucleotides contained 100% phosphorothioate linkages and were tested at 20 μg/ml. The PLGA microcarriers were used at 250 μg/ml. When oligos were tested with PLGA microcarriers, the oligo and the microcarriers were added at the same time to the culture. The cells were cultured in the in the presence of test samples for 24 hours, then cell-free medium was collected from each well and assayed for IFN-γ and IFN-α concentration. Two different oligonucleotides were used as controls: a first oligonucleotide known to have immunostimulatory activity (a 22mer oligonucleotide containing an ISS (“ISS+,” 5′-[…]-3′(SEQ ID NO:2)) and a second oligonucleotide of similar sequence but lacking immunostimulatory activity (“ISS−,” 5′-[…]-3′ (SEQ ID NO:1)). SAC (PANSORBIN® CalBiochem, 1/5000 dilution) and a untreated culture were used as additional positive and negative controls, respectively. SAC contains Staph. aureus (Cowan I) cell material. All samples were assayed in duplicate.
(§3) IFN-γ and IFN-α were assayed using CYTOSCREEN™ ELISA kits from BioSource International, Inc., according to the manufacturer's instructions.
(§4) The immunomodulatory activity of the oligonucleotides used in Examples 3 and 4 was confirmed with the human PBMC assay using PBMCs from an additional four donors (donors 28051-28054). Oligonucleotides were tested alone or in combination with cationic PLGA as described in Example 3, except that 96 well plates were used instead of 48 well plates and the oligonucleotides were premixed with the cationic microspheres at room temperature for 15 minutes before they were added to the culture, rather than being added simultaneously to the culture.
Additional oligonucleotides were tested for immunomodulatory activity in the human PBMC assay. Oligonucleotides were tested alone or in combination with cPLGA as described in Example 5.
Additional oligonucleotides were tested using hPBMCs from volunteers 154-157 using the same assay. Results, which are shown in Table 7, confirm the activity of oligonucleotides fitting the formula 5′-X1TCGX2-3′, where the oligonucleotide is a 3-6mer, X1 is zero or one nucleotide and X2 is zero to three nucleotides.

[2] = system: human peripheral blood mononuclear cells (hPBMC); experiment: human PBMC assay, Example 7 (oligo 20 μg/ml, cPLGA 100 μg/ml); details: for immunomodulatory activity: combined with cPLGA; for IFN-α Mean / IFN-γ Mean: mean of donors 28115-28118
Description: as §1, §2, §3, §4
Additional oligonucleotides, some incorporating modified bases, were tested for immunomodulatory activity in the human PBMC assay. Oligonucleotides were tested alone or in combination with cPLGA as described in Example 5. The oligonucleotides were premixed with the cationic PLGA microspheres for 15 minutes at room temperature at concentrations of 20 μg/ml and 100 μg/ml, respectively.

[3] = system: human peripheral blood mononuclear cells (hPBMC); experiment: human PBMC assay, Example 4 (oligos and PLGA premixed 15 minutes); details: for IFN-α Mean / IFN-γ Mean: mean of donors 28044, 28045
Description: as §1, §2, §3
Additional hexameric and pentameric oligonucleotides were tested for immunomodulatory activity in the PBMC assay. Oligonucleotides 6-6 (5′-TCGAGA-3′), 6-8 (5′-GTCGAC-3′), 6-9 (5′-GTCGTT-3′), 6-2 (5′-TCGTTT-3′), 6-3 (5′-TTCGTT-3′), 6-4 (5′-TTTCGT-3′), 5-1 (5′-TCGTC-3′), and 5-2 (5′-TCGTT-3′) were tested alone or in combination with cationic PLGA as described in Example 3 except that the oligos and PLGA were premixed for 15 minutes room temperature before addition to the cultures. The test articles were assayed using PBMC isolated from donors 28044 and 28045.

[4] = system: human peripheral blood mononuclear cells (hPBMC); experiment: human PBMC assay, Example 5 (96 well plates, premixed); details: for IFN-α Mean / IFN-γ Mean: mean of donors 28051-28054
Description: as §1, §2, §3, §4

[5] = delivered as IMO/MC complexes (cPLGA)

Substance	immunomodulatory activity [2]	IFN-α ([2]; donor 28115) [pg/mL]	IFN-γ ([2]; donor 28115) [pg/mL]	IFN-α ([2]; donor 28116) [pg/mL]	IFN-γ ([2]; donor 28116) [pg/mL]	IFN-α ([2]; donor 28117) [pg/mL]	IFN-γ ([2]; donor 28117) [pg/mL]	IFN-α ([2]; donor 28118) [pg/mL]	IFN-γ ([2]; donor 28118) [pg/mL]	IFN-α Mean [2] [pg/mL]	IFN-γ Mean [2] [pg/mL]	IFN-α ([3]; donor 28044) [pg/mL]	IFN-γ ([3]; donor 28044) [pg/mL]	IFN-α ([3]; donor 28045) [pg/mL]	IFN-γ ([3]; donor 28045) [pg/mL]	IFN-α Mean [3] [pg/mL]	IFN-γ Mean [3] [pg/mL]	immunomodulatory activity [4, 5]	IFN-α ([4]; donor 28051) [pg/mL]	IFN-γ ([4]; donor 28051) [pg/mL]	also measured
5′-TCGTCG-3′ [Oligonucleotide 6-12]	–	–	–	–	–	–	–	–	–	–	–	–	–	–	–	–	–	–	–	–	immunomodulatory activity ([1]; delivered as oligonucleotide/MC complex (cPLGA)): highly active; IFN-α ([1]; donor 28075): 5 pg/mL; IFN-γ ([1]; donor 28075): 8 pg/mL; IFN-α ([1]; donor 28076): 3 pg/mL; IFN-γ ([1]; donor 28076): 13 pg/mL; IFN-α ([1]; donor 28077): 187 pg/mL; IFN-γ ([1]; donor 28077): 13 pg/mL; IFN-α ([1]; donor 28078): 181 pg/mL; IFN-γ ([1]; donor 28078): 18 pg/mL; IFN-α Mean ([1]; mean of donors 28075-28078): 94 pg/mL; IFN-γ Mean ([1]; mean of donors 28075-28078): 13 pg/mL
5′-TTCGT-3′ [Oligonucleotide 5-3]	active in two of four donors	10	26	0	4	0	17	0	0	3	12	–	–	–	–	–	–	–	–	–	–
5′-TTCGTT-3′ [Oligonucleotide 6-3]	–	–	–	–	–	–	–	–	–	–	–	0	6	0	0	0	3	highly active	0	1	immunomodulatory activity ([4]; delivered alone): inactive; IFN-α ([4]; donor 28052): 5 pg/mL; IFN-γ ([4]; donor 28052): 0 pg/mL; IFN-α ([4]; donor 28053): 5 pg/mL; IFN-γ ([4]; donor 28053): 5 pg/mL; IFN-α ([4]; donor 28054): 0 pg/mL; IFN-γ ([4]; donor 28054): 0 pg/mL; IFN-α Mean [4]: 3 pg/mL; IFN-γ Mean [4]: 2 pg/mL
5′-TTTCGT-3′ [Oligonucleotide 6-4]	–	–	–	–	–	–	–	–	–	–	–	0	13	0	0	0	6	variable activity	0	3	IFN-α ([4]; donor 28052): 2 pg/mL; IFN-γ ([4]; donor 28052): 0 pg/mL; IFN-α ([4]; donor 28053): 11 pg/mL; IFN-γ ([4]; donor 28053): 2 pg/mL; IFN-α ([4]; donor 28054): 0 pg/mL; IFN-γ ([4]; donor 28054): 0 pg/mL; IFN-α Mean [4]: 3 pg/mL; IFN-γ Mean [4]: 1 pg/mL
5′-TTTTCG-3′ [Oligonucleotide 6-5]	–	–	–	–	–	–	–	–	–	–	–	–	–	–	–	–	–	–	–	–	IFN-α Mean ([1]; mean of volunteers 154-157): 0 pg/mL; IFN-γ Mean ([1]; mean of volunteers 154-157): 3 pg/mL; IFN-α ([1]; volunteer 154): 0 pg/mL; IFN-γ ([1]; volunteer 154): 0 pg/mL; IFN-α ([1]; volunteer 155): 0 pg/mL; IFN-γ ([1]; volunteer 155): 0 pg/mL; IFN-α ([1]; volunteer 156): 0 pg/mL; IFN-γ ([1]; volunteer 156): 11 pg/mL; IFN-α ([1]; volunteer 157): 0 pg/mL; IFN-γ ([1]; volunteer 157): 0 pg/mL
5′-UCGTTT-3′ [Oligonucleotide 6-21]	active	0	27	0	0	0	7	0	0	0	8	–	–	–	–	–	–	–	–	–	–
